Experimental data from ChEMBL document CHEMBL1201862, “PubChem BioAssay data set” (2004).
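Following 48 hours of exposure in 96-well plates, responses at five concentrations were used to interpolate endpoints linearly. GI50: concentration for 50% inhibition of growth.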 Calls of active or inactive are those of the source. Cut-off read from the data, not from the text of the source: active = GI50 up to about 1.1 µM and inactive = higher.

Tests used:
Test in all cases: DTP human tumour cell line panel, 48 h
[1] = tested on: SK-MEL-5
[2] = tested on: COLO 205
[3] = tested on: TK-10
[4] = tested on: EKVX
[5] = tested on: KM12
[6] = tested on: CAKI-1
[7] = tested on: OVCAR-3
[8] = tested on: IGROV-1
[9] = tested on: UACC-257
[10] = tested on: OVCAR-8
[11] = tested on: OVCAR-5
[12] = tested on: UO-31
[13] = tested on: UACC-62
[14] = tested on: SK-OV-3
[15] = tested on: HCT-15
[16] = tested on: 786-0
[17] = tested on: NCI-H460
[18] = tested on: SF-268
[19] = tested on: SR
[20] = tested on: HCT-116

Row | Compound | GI50 [1] | GI50 [2] | GI50 [3] | GI50 [4] | GI50 [5] | GI50 [6] | GI50 [7] | GI50 [8] | GI50 [9] | GI50 [10] | GI50 [11] | GI50 [12] | GI50 [13] | GI50 [14] | GI50 [15] [µM] | GI50 [16] | GI50 [17] | GI50 [18] | GI50 [19] | GI50 [20]
1 | CC12CCC(O)CC1CCC1C2CCC2(C)C(C(=O)CC(O)C(F)(F)F)CCC12 (centres undefined) | 28.4 µM (inactive) | 12.2 µM (inactive) | 53.7 µM (inactive) | 40.4 µM (inactive) | 17.1 µM (inactive) | 21 µM (inactive) | 28.6 µM (inactive) | > 67.8 µM (inactive) | 21.6 µM (inactive) | 55.7 µM (inactive) | 26.4 µM (inactive) | 3.99 µM (inactive) | 52.2 µM (inactive) | 27 µM (inactive) | 9.06 | 7.46 µM (inactive) | 11.7 µM (inactive) | 33.7 µM (inactive) | 0.289 µM (active) | 28.4 µM (inactive)
2 | COC(=O)C(=O)C(C(=O)OC)C(=O)C(=O)Nc1cc(Cl)c(Cl)cc1Cl (centres undefined) | > 100 µM (inactive) | 29.4 µM (inactive) | > 100 µM (inactive) | > 100 µM (inactive) | > 100 µM (inactive) | > 100 µM (inactive) | > 100 µM (inactive) | > 100 µM (inactive) | > 100 µM (inactive) | > 100 µM (inactive) | > 100 µM (inactive) | > 100 µM (inactive) | > 100 µM (inactive) | > 100 µM (inactive) | 47.1 | > 100 µM (inactive) | > 100 µM (inactive) | > 100 µM (inactive) | 24.8 µM (inactive) | 22.4 µM (inactive)
3 | O=C1CSC(c2ccc(Cl)cc2Cl)N1c1ccc(Oc2ccc(Cl)cc2)c(Cl)c1 (centres undefined) | 19 µM (inactive) | 25.5 µM (inactive) | 51.4 µM (inactive) | 23.3 µM (inactive) | 20.2 µM (inactive) | 22.4 µM (inactive) | 17.5 µM (inactive) | 28.1 µM (inactive) | 37.1 µM (inactive) | 29.9 µM (inactive) | 33.3 µM (inactive) | 7.08 µM (inactive) | 21.9 µM (inactive) | 30.7 µM (inactive) | 25.6 | 17.5 µM (inactive) | 27.4 µM (inactive) | 16 µM (inactive) | 16.3 µM (inactive) | 16.9 µM (inactive)
4 | C[C@@]12CCC(=O)C=C1CC[C@H]1C2=CC[C@]2(C)C1CC[C@@]2(C)O (some centres undefined) | 41.6 µM (inactive) | 35 µM (inactive) | > 100 µM (inactive) | > 100 µM (inactive) | 29.7 µM (inactive) | 48.3 µM (inactive) | 34.1 µM (inactive) | 79.3 µM (inactive) | 69.2 µM (inactive) | > 100 µM (inactive) | > 100 µM (inactive) | 41.9 µM (inactive) | 37 µM (inactive) | 54.6 µM (inactive) | 36.2 | > 100 µM (inactive) | 43.6 µM (inactive) | 75.2 µM (inactive) | 34.8 µM (inactive) | 52 µM (inactive)
5 | C=C(Nc1ccc(OC)cc1OC)C(=O)Cc1cccc[n+]1[O-] | > 100 µM (inactive) | > 100 µM (inactive) | > 100 µM (inactive) | > 100 µM (inactive) | > 100 µM (inactive) | > 100 µM (inactive) | > 100 µM (inactive) | > 100 µM (inactive) | > 100 µM (inactive) | > 100 µM (inactive) | > 100 µM (inactive) | > 100 µM (inactive) | > 100 µM (inactive) | > 100 µM (inactive) | > 100 | > 100 µM (inactive) | > 100 µM (inactive) | > 100 µM (inactive) | > 100 µM (inactive) | > 100 µM (inactive)
6 | CCOC(=O)C1C(=O)CN2CCc3c([nH]c4ccccc34)C12C(=O)OCC (centres undefined) | > 100 µM (inactive) | > 100 µM (inactive) | > 100 µM (inactive) | > 100 µM (inactive) | > 100 µM (inactive) | > 100 µM (inactive) | > 100 µM (inactive) | > 100 µM (inactive) | > 100 µM (inactive) | > 100 µM (inactive) | > 100 µM (inactive) | > 100 µM (inactive) | > 100 µM (inactive) | > 100 µM (inactive) | > 100 | > 100 µM (inactive) | > 100 µM (inactive) | > 100 µM (inactive) | > 100 µM (inactive) | > 100 µM (inactive)
7 | O=[N+]([O-])/C=C/c1cn(CCCCCCCCn2cc(/C=C/[N+](=O)[O-])c3ccccc32)c2ccccc12 | > 10 µM (inactive) | > 10 µM (inactive) | > 10 µM (inactive) | > 10 µM (inactive) | > 10 µM (inactive) | 0.689 µM (active) | > 10 µM (inactive) | > 10 µM (inactive) | > 10 µM (inactive) | > 10 µM (inactive) | > 10 µM (inactive) | > 10 µM (inactive) | > 10 µM (inactive) | > 10 µM (inactive) | > 10 | > 10 µM (inactive) | > 10 µM (inactive) | > 10 µM (inactive) | > 10 µM (inactive) | 0.211 µM (active)
8 | CC1=C2c3c(C)ccc4ccc(C)c(c34)C2(O)C(C)C1=O (centres undefined) | 29.2 µM (inactive) | 28.8 µM (inactive) | > 100 µM (inactive) | 70.8 µM (inactive) | 41.3 µM (inactive) | 52.1 µM (inactive) | 37.7 µM (inactive) | 49.2 µM (inactive) | 53.8 µM (inactive) | 19.4 µM (inactive) | > 100 µM (inactive) | 21.3 µM (inactive) | 35.8 µM (inactive) | 52.7 µM (inactive) | 42.8 | 51.2 µM (inactive) | 60.1 µM (inactive) | 63.4 µM (inactive) | > 100 µM (inactive) | 43.8 µM (inactive)
9 | Cc1cccc(C)c1NC(=O)C(=O)C1C(=O)N(c2ccccc2)N=C1N (centres undefined) | > 100 µM (inactive) | > 100 µM (inactive) | > 100 µM (inactive) | > 100 µM (inactive) | > 100 µM (inactive) | > 100 µM (inactive) | > 100 µM (inactive) | > 100 µM (inactive) | > 100 µM (inactive) | > 100 µM (inactive) | > 100 µM (inactive) | > 100 µM (inactive) | > 100 µM (inactive) | > 100 µM (inactive) | > 100 | > 100 µM (inactive) | > 100 µM (inactive) | > 100 µM (inactive) | > 100 µM (inactive) | > 100 µM (inactive)
10 | COc1cc2c(cc1O)CC[C@@H]1C2CC[C@@]2(C)C1CC[C@@H]2O (some centres undefined) | 1.35 µM (inactive) | 36.7 µM (inactive) | 14 µM (inactive) | 6.17 µM (inactive) | 4.43 µM (inactive) | 13.5 µM (inactive) | 0.634 µM (active) | 5.51 µM (inactive) | 11.2 µM (inactive) | 2 µM (inactive) | 37 µM (inactive) | 6.65 µM (inactive) | 1.21 µM (inactive) | 3.22 µM (inactive) | 0.566 | 2.07 µM (inactive) | 1.96 µM (inactive) | 3.43 µM (inactive) | 0.073 µM (active) | 1.19 µM (inactive)
11 | COc1ccc(NC(=O)C(=O)NO)c(OC)c1 | 18.5 µM (inactive) | 21 µM (inactive) | 22.4 µM (inactive) | 14.9 µM (inactive) | 19.8 µM (inactive) | 13.8 µM (inactive) | 16.6 µM (inactive) | 15.4 µM (inactive) | 22.2 µM (inactive) | 15 µM (inactive) | 19.5 µM (inactive) | 16.2 µM (inactive) | 14.8 µM (inactive) | 19.5 µM (inactive) | 16.3 | 16 µM (inactive) | 16 µM (inactive) | 16.9 µM (inactive) | 0.239 µM (active) | 18.5 µM (inactive)
12 | COC(=O)C1CCC(=O)N1C(c1ccc2c(c1)OCO2)c1cc(OC)c(OC)c(OC)c1 (centres undefined) | > 100 µM (inactive) | > 100 µM (inactive) | > 100 µM (inactive) | > 100 µM (inactive) | > 100 µM (inactive) | > 100 µM (inactive) | > 100 µM (inactive) | > 100 µM (inactive) | > 100 µM (inactive) | > 100 µM (inactive) | > 100 µM (inactive) | > 100 µM (inactive) | > 100 µM (inactive) | > 100 µM (inactive) | > 100 | > 100 µM (inactive) | > 100 µM (inactive) | > 100 µM (inactive) | > 100 µM (inactive) | > 100 µM (inactive)
13 | COc1ccc(-c2cc(=O)c3c(OC)c(O)c(OC)cc3o2)cc1 | 23.4 µM (inactive) | 49 µM (inactive) | 28.3 µM (inactive) | 50.8 µM (inactive) |  | 85.5 µM (inactive) | 34 µM (inactive) | 33 µM (inactive) | 36.1 µM (inactive) | 56.6 µM (inactive) | > 100 µM (inactive) | 30.7 µM (inactive) | 30.8 µM (inactive) | 50.7 µM (inactive) | 35 | 47.4 µM (inactive) | 32.8 µM (inactive) | 91.4 µM (inactive) | 73.8 µM (inactive) | 46.8 µM (inactive)
14 | Cc1ccc2c(O)cc(-c3ccccc3)nc2n1 | 0.0512 µM (active) | 0.0378 µM (active) | 0.12 µM (active) | 1.74 µM (inactive) | 0.0304 µM (active) | 0.0564 µM (active) | 0.0346 µM (active) | 0.11 µM (active) | 0.285 µM (active) | 0.217 µM (active) | 2.56 µM (inactive) | 0.593 µM (active) | 0.0521 µM (active) | 0.105 µM (active) | 0.0352 | 0.222 µM (active) | 0.0574 µM (active) | 1.56 µM (inactive) | < 0.0306 µM (active) | 0.0507 µM (active)
